3 compounds from PMC9692753, “Pentapeptide-Zinc Chelate from Sweet Almond Expeller Amandin Hydrolysates: Structural and Physicochemical Characteristics, Stability and Zinc Transport Ability In Vitro” (Molecules, 2022) can be followed below.

Marks after values point to notes of the source that are not given here. Where no end group is shown, it is not given here.

Data set [1] is described as follows: Zinc-chelating ability assay (PAR colorimetric method). The format is binding. As to conditions: sample in 0.1 mol/L HEPES-KOH buffer, DTT 8 mmol/L, ZnSO4 250 μmol/L, 37 °C 10 min, absorbance at 500 nm, n ≥ 3. The method, then:
Zinc-chelating ability was determined using the PAR colorimetric method. […] The mixed solution was stirred (180 r/min) at 37 °C for 10 min, and then 250 μL PAR (0.2 mmol/L, pH 7.5) was added. After incubation at 37 °C for 3 min, the absorbance at 500 nm was read. […] Zinc-chelating capacity was calculated as follows:(1) Zinc chelating ability mg/g=Cc−Cs× 65.38×10^−3×V /M where, Cc (μmol/L) is the zinc concentration in the reaction solution without samples; Cs is the zinc concentration in reaction solution after the chelating reaction (μmol/L); V is the volume of the reaction solution; M is the mass of the samples (g); and 65.38 is the mol mass of zinc (g/mol).

The test system of the next data set is Caco-2 cells. Kind of data set: Cell viability of Caco-2 cells (MTT method). In kind it is cell-based. Background: Formazan colour is commonly taken as a measure of viable cells.
The nature of data set [2]: Thermal stability of zinc solubility (boiling water). The note with it: chelate 1 mg/mL in ultrapure water, zinc sulphate and zinc gluconate 100 μg/mL; boiling water 10, 20, 40, 60 min; zinc in supernatant / total zinc; PAR method; n ≥ 3; Figure 7. As to the method: SAEAH peptide-zinc chelate solution (1 mg/mL, dispersed in ultrapure water) was incubated in boiling water for 10, 20, 40 and 60 min [37]. After centrifugation at 6000× g for 15 min, the supernatant was collected for zinc content determination.

Experimental for Caco-2 cells: In addition, effects of ZnSO4/zinc gluconate and peptide-zinc chelate on cell viability were measured using the MTT method [38].

For `O=C(O)CN(CCN(CC(=O)O)CC(=O)O)CC(=O)O` [EDTA], the Zinc chelating capacity in data set [1] is recorded as 57.17 ± 2.63 ^d mg/g. Same read-out and setting: the result for “VDLVAEVPRGL [peptide identified in sweet almond expeller amandin hydrolysates]” reads 4.33 ± 0.33 ^e mg/g. Turning to `O=C([O-])[C@H](O)[C@@H](O)[C@H](O)[C@H](O)CO.O=C([O-])[C@H](O)[C@@H](O)[C@H](O)[C@H](O)CO.[Zn+2]` [zinc gluconate], in the data set with Caco-2 cells, the “Cytotoxicity toward Caco-2 cells” value is given as “no significant (p > 0.05) cytotoxicity”. In addition, the “Zinc solubility stability against incubation at 100 °C (result in words)” value in data set [2] is “not reduced significantly”.
